From PMC11371747, “The role of l-leucovorin uptake and metabolism in the modulation of 5-fluorouracil efficacy and antifolate toxicity” (Frontiers in Pharmacology, 2024) come the findings set out here.

Assay [1] deals with T1, thymidylate synthase (TS) (Homo sapiens, UniProt P04818).
T1 construct: The principle of this assay is the measurement of TS enzymatic activity in intact cells; endogenous in cells; host or cells: colon cancer cell lines (WiDr, WiDr-LF, SW1398, LS174T and others)
Briefly: TS in situ inhibition assay (TSIA) in colon cancer cells. Type of assay: cell-based. To be noted: WiDr, 5 µM d-LV. An excerpt:
The principle of this assay is the measurement of TS enzymatic activity in intact cells. Intact cells will readily internalize radioactively labelled [5-^3H]-deoxycytidine, which will be rapidly converted by deoxycytidine kinase (dCK) to [5-^3H]-dCMP and subsequently deaminated to [5-^3H]-dUMP, which will then serve as a substrate in the TS catalysed reaction to dTMP and ^3H2O; the quantity of ^3H2O formed over time is a measure of intracellular TS activity. […] This is because dCK has a higher, cell cycle independent activity than thymidine kinase 1, which is a cell cycle dependent enzyme. For this purpose, cancer cells were cultured in six wells plates at 2.5 × 10^5 cells/2 mL/well for 24 h. Thereafter, cells were exposed to drugs with or without the LV formulations at the indicated concentrations for 4 h. 2 h before the end of the incubation period [5-^3H]-2′-deoxycytidine (final concentration 1 µM) was added to the cells. […] In most cell lines we quantified dCK activity and dCK mRNA levels.

For another assay, the target named is T2, human PCFT (Homo sapiens, UniProt Q96NT5).
T2 construct: expressed in transfected cells; host or cells: CHO/C5 (RFC-deficient Chinese hamster ovary cells, no PCFT)
T2 sequence (Q96NT5 1-459): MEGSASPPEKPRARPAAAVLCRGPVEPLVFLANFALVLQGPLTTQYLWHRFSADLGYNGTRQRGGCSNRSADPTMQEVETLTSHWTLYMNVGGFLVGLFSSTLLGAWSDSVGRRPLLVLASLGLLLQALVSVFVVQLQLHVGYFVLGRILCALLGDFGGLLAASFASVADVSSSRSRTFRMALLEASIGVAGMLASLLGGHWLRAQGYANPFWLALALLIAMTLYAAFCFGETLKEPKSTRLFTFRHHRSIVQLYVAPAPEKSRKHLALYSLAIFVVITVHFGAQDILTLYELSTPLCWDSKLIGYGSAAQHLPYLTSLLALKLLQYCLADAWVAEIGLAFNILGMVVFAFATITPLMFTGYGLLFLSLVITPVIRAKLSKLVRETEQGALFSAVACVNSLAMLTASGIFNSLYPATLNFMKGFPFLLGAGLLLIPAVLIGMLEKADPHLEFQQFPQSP
The assay can be described thus: Inhibition of PCFT-mediated [3H]-l-LV influx in CHO/C5-PCFT cells. Type of assay: cell-based, Chinese hamster (CHO cells). The following applies: CHO/C5/PCFT cells, 2.5 µM [3H]-l-LV, pH 5.5, 3 min; read-out: Concentration for 50% inhibition of PCFT-mediated [3H]-l-LV influx. How it is done: (§1) In order to determine whether the LV isomers were substrates for either folate receptor α (FRα), RFC and/or PCFT, we used model systems with established overexpression of these receptors or transporters ([Westerhof et al., 1995a]; [Westerhof et al., 1995b]; [Lasry et al., 2008]; [Van der Heijden et al., 2009]).
The competitive inhibition by 2.5 μM [^3H]-l-LV influx of PCFT was measured essentially as described for the RFC assay, except that the incubation time was 3 min, at pH 5.5 (the optimal pH for PCFT) and pH 7.4 with increasing amounts of unlabelled LV stereoisomers/antifolate drug. For PCFT too, relative affinities were expressed as the concentration of unlabelled drug necessary to inhibit 50% of [^3H]-l-LV influx.

A further assay concerns the target T3, folate receptor α (FRα) (Homo sapiens, UniProt P15328).
T3 construct: endogenous in cells; host or cells: KB cells (FRα++)
The assay can be described thus: Intact cell competitive binding assay, displacement of [3H]-folic acid from FRα in KB cells. On the procedure:
as §1
For FRα we used KB cells ([Westerhof et al., 1995b]). An intact cell binding assay for competitive binding was performed as described previously ([Westerhof et al., 1995a]). Briefly, cells were washed with Hanks balanced salt solution and 6 mM glucose (HBSS, pH 7.4), suspended in 1 mL of this solution (1*10^6 for KB cells) and incubated at 4°C for 15 min with 100 pmol [^3H]-folic acid [(^3H)-FA], in the presence and absence of unlabelled folic acid or LV stereoisomers. Cells were collected by centrifugation and analysed for radioactivity. Relative affinities for FRα were defined as the inverse ratio of compound to displace 50% of radioactive folic acid from FRα. The relative affinity of folic acid was set at 1.
(Displacement assays read how much labelled ligand stays bound in the presence of the test substance.)

The subject of another assay is colon cancer cell lines. Briefly: Growth inhibition, SRB assay, panel of colon cancer cell lines. In kind it is cell-based, human. The following applies: all colon cancer cell lines. On the procedure: (§2) Briefly, cells were seeded in triplicate in 96-well plates at their pre-established optimal density (CHO cells: 2,500 cells/100 μL; WiDr and HT29: 3,500 cells/100 μL; WiDr-LF/LV, LS174T: 5,000 cells/100 μL; CaCo2, CaCo2-LF/LV, H292, H28 and MSTO-211H: 6,000 cells/100 μL; H460, SW948 and SW1398: 7,000 cells/100 μL) and were allowed to attach for ∼ 24 h at 37°C in 5% CO2 and 100% humidified incubator. Thereafter, 100 μL of drug dilution without LV, or with 5 μM l-LV/5 μM d-LV/10 μM dL-LV (or any LV alone) were added. Cells were allowed to grow for 72 h at 37°C in 5% CO2 and 100% humidity. The t = 0 h control plate consisted of cells plated on the same day as the other cells, but after 24 h at 37°C in 5% CO2 and 100% humidity, only 100 μL medium was added and the cells were fixed immediately with 50% trichloroacetic acid (TCA) in milliQ water (25 μL per well) and put at 4°C for at least 1 h. Plates were washed five times with water and dried. Cells were stained with the SRB protein dye (0.4% (w/v) in 1% acetic acid. Excess dye was washed away four times with 1% acetic acid and plates were dried again. 200 μL of Tris (10 mM Tris (hydroxymethyl)-aminomethane in MQ) was added and optical density (OD) was read at 492 nm after mixing 2–3 min on a plate shaker.
On the technique in general: The SRB assay estimates cell density from bound dye.

The target in assay [2] is T4, reduced folate carrier (RFC/SLC19A1) (Homo sapiens, UniProt P41440).
T4 construct: CEM-7A cells, which display 30-fold RFC overexpression relative to wild-type CCRF-CEM cells; endogenous in cells; host or cells: CEM-7A (CCRF-CEM variant, RFC+++ 30-fold)
T4 sequence (P41440 1-591): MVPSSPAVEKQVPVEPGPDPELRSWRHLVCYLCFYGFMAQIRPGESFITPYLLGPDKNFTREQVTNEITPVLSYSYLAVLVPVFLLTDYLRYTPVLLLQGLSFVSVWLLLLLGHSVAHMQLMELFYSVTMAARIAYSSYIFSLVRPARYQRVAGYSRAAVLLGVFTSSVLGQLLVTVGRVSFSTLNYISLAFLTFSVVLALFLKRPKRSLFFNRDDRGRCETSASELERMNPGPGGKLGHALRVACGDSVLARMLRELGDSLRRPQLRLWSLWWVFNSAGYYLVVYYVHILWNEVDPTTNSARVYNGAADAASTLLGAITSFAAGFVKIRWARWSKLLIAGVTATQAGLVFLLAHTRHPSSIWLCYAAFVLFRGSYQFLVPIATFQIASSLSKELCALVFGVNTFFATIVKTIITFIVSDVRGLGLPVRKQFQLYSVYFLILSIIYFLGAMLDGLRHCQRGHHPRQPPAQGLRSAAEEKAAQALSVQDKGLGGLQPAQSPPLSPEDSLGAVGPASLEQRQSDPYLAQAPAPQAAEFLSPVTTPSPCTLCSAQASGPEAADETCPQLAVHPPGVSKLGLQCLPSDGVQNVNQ
Briefly: Inhibition of RFC-mediated [3H]-l-LV influx in CEM-7A cells. Type of assay: cell-based. The following applies: 5 µM [3H]-l-LV, 2 min, 37°C, read-out: Concentration for 50% inhibition of [3H]-l-LV influx (RFC). How it is done: as §1
CEM-7A cells (2 × 10^6) were suspended in 1 mL HBSS and the assay was initiated by addition of 25 μL 200 μM [^3H]-l-LV; 5,000 pmol (i.e., 5 μM final concentration). Incubations proceeded for 2 min at 37°C in the absence and presence of increasing amounts of unlabelled LV/antifolate drug. Blanks consisted of a separate incubation at 4°C or incubation with 100-fold molar excess of unlabelled l-LV. [^3H]-l-LV influx was terminated by adding 9 mL ice-cold HBSS, centrifugation and an additional wash of the cells with 10 mL ice-cold buffer. Cell pellets were then assessed for radioactivity. Relative affinities for RFC are expressed as the concentration of unlabelled drug necessary to inhibit [^3H]-l-LV uptake by 50%.

For a further assay, the system named is WiDr LF/LV cells. The assay can be described thus: Growth inhibition, SRB assay, WiDr LF/LV. To be noted: WiDr-LF cells, 5 µM d-LV. Type of assay: cell-based, human. How it is done: as §2

T3 sequence (P15328 25-257): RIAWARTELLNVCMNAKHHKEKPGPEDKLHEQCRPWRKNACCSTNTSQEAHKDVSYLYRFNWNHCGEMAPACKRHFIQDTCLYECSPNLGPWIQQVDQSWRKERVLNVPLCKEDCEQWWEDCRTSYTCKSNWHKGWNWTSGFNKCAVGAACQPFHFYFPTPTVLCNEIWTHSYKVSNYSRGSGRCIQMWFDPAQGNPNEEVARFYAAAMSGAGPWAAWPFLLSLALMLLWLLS
T1 sequence (P04818 2-313 limits assumed): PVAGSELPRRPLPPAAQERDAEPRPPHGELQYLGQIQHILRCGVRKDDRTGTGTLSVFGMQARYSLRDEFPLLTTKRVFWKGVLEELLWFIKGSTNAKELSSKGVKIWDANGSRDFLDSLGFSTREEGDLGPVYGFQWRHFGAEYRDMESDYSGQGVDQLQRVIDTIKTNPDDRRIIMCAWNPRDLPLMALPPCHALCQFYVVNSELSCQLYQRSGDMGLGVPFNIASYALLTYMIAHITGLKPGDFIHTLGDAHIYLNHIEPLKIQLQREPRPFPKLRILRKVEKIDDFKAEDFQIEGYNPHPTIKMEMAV

Regarding `Nc1nc2c(c(=O)[nH]1)N(C=O)[C@H](CNc1ccc(C(=O)N[C@@H](CCC(=O)O)C(=O)O)cc1)CN2` [d-LV, (6R)-leucovorin], the “Protective effect on the TSIA against antifolates” value in assay [1] is “does not display any protective effect”. For the same compound, the IC50 on human PCFT is 13.3 µM; in assay [2] it was 44 µM. For the same compound, on folate receptor α (FRα), the “Molar excess over folic acid required for displacement of [3H]-FA binding from FRα” value came out at 69 fold. In addition, the “Relative affinity for FRα” value on folate receptor α (FRα) (100 pmol [3H]-FA, inverse ratio of amount of drug displacing 50% of [3H]-FA, FA set to 1) is 0.016. Moreover, in the assay with colon cancer cell lines, the “Modulation of 5FU sensitivity” value is “ineffective”. In addition, the “Increase of IC50 value for 5FU by d-LV” value with WiDr LF/LV cells stood at 1.5 fold.
